BigSolDB 2.1

C[n+]1ccn(CCOCCn2cc[n+](C)c2)c1.F[P-](F)(F)(F)(F)F.F[P-](F)(F)(F)(F)F
solubility (mole fraction)
Settings | in acetone | in acetonitrile | in ethanol | in methanol | in water
283 K | 0.0599 | 0.0726 | 3.2e-05 | 0.000171 | 0.000118
288 K | 0.061 | 0.0749 | 3.8e-05 | 0.000234 | 0.000157
293 K | 0.0621 | 0.0775 | 4.7e-05 | 0.000298 | 0.00021
298 K | 0.0631 | 0.0802 | 5.6e-05 | 0.000376 | 0.000271
303 K | 0.0641 | 0.0834 | 6.9e-05 | 0.000464 | 0.000345
